# According to patent US20120034613A1, “Apparatus and Method for Testing Relationships Between Gene Expression and Physical Appearance of Skin” (NSE Products, Inc., priority 2010, published 2012):
# Experiments:
# facial skin = assay: Cutometer measurement of extensibility of the skin, 12 week clinical study; type: in vivo, human; details: for Cutometer Extensibility Mean: Baseline mean 1.15
# Excerpt: A single cutometer measurement was taken on the right side of the subject's face, in line with the corner of the eye and the edge of the nostril, to measure the extensibility of the skin. All clinical and corneometer measurements and evaluations were taken at baseline, week 1 (visit 2), week 4 (visit 3), week 8 (visit 4) and week 12 (visit 5). Ultrasound and cutometer measurements and evaluations were taken at baseline, week 4 (visit 3), week 8 (visit 4) and week 12 (visit 5). Completed patient's diaries were reviewed for compliance at each visit. Mean clinical grading and instrumentation scores at each visit were statistically compared to baseline scores using paired t-test. Changes from baseline were considered significant at the p≦0.05 level. Mean percent change from baseline and incidence of positive responders were calculated for all attributes. Comparisons, based on the average from baseline, were made between the test materials using analysis of variance (ANOVA).
# [1] = tested on: human equivalent skin tissue; assay: RT-rt-PCR (TaqMan Low Density Arrays) gene expression confirmation, agent-exposed vs unexposed skin model; type: cell-based; details: Salicin 0.5% vs. Untreated Control, HPRT as Endogenous Control Gene
# Experimental: Preferably this is done with the same skin model as used with the microarray technology for measuring global gene expression. The qualities of the agent (concentration, solvent, etc.) should normally be the same.
# In some embodiments, the agent tested is salicin at a concentration of 0.5% salicin, available from Symrise Corporation (Teterborro, N.J.). The salicin is dissolved in water. Affymetrix microarray testing provides results for thousands of genes, whereas RT-rt-PCR testing provides results for a smaller gene group. For RT-rt-PCR testing, about 90 genes are tested at a time for this particular experimental design (other designs may test as many as 390 at a time on the equipment identified below). The experimenter may choose this number based on cost.
# To implement this step, RT-rt-PCR is conducted for specific genes known to be involved in skin aging. In one embodiment Custom TaqMan® Low Density Arrays (TLDA's) were configured using Applied Biosystems validated gene expression assays. The validated gene expression assays contain a TaqMan® fluorescent probe and primers for each target gene. Genes for the TLDA cards are selected based on either, published literature describing the genes functional role in skin cell biology and aging and/or the previous Affymetrix testing results. (See Tables 1-4). Five endogenous control genes may be included on each card. Thus, when a particular gene assembly is tested with RT-rt-PCR, the data resulting may cover more than just the set of genes as in Table 3.
# (High-Capacity cDNA Reverse Transcription Kits for 200 and 1000 Reactions Protocol (October, 2006)). cDNA was mixed with TaqMan® Universal Master Mix without UNG and loaded into the wells of the TLDA cards. The cards are run using an Applied Biosystems 7900HT instrument according to the manufacturer's cycling parameters.
# As with the microassay, the analysis is done with a skin model exposed to the agent and a reference that is not exposed to the agent. The skin model not exposed to the agent may be used for calibration. The skin model may be human equivalent skin tissue. The target genes get normalized to a stable endogenous control (genes that are invariants in all cell types such as […]). This normalization is to account for variations that may occur during sample loading. The unexposed information gathered is used for comparison against the tested sample.
# The formula for ΔCT (delta cycle threshold) is CT (target) minus CT (endogenous control gene). (ΔCT=CT (target)−CT (endogenous control gene)). The test system, data processing system 710 stores the data then uses process application modules 720 to take the CT values for both the exposed and unexposed and get a ΔΔCT value, which is reported for that specific gene in a log ratio scale. […] In one embodiment, data analysis is carried out according to the RQ analysis method using RQ Manager and StatMiner (v3.1) software programs.
# At least part of the comparing of the data is performed by a computer system, such as the data processing system 710 (see FIG. 7) for performing data access and storage and various computations specified by software (process application modules 720) corresponding to the functions occurring at various described steps of this method. Additional process application modules 722 perform a parametric t-test with a Benjamini and Hochberg false discovery rate correction is performed to identify genes with a statistically significant p value equal to or less than 0.05. The up or down regulation of the gene is also identifiable from the RT-rt-PCR analysis. Results of the change in threshold cycle (ΔCT) values between the exposed and unexposed human skin tissues are calculated by a software program. The selected genes will have a cycle threshold of biological relevance. For these experiments, the selected genes have a cycle threshold of less than about <35, which is a value of biological relevance. […]
smiles,measurement,setting,value
"OCc1ccccc1O[C@@H]1O[C@H](CO)[C@@H](O)[C@H](O)[C@H]1O [Salicin, 2-(Hydroxymethyl)phenyl β-D-glucospyranoside]",Cutometer Extensibility Mean,facial skin; Week 4,1.17
same,Cutometer Extensibility % Change,facial skin; Week 4 vs Baseline,(1.8%)
same,Cutometer Extensibility Mean,facial skin; Week 8,1.17
same,Cutometer Extensibility % Change,facial skin; Week 8 vs Baseline,(1.3%)
same,Cutometer Extensibility Mean,facial skin; Week 12,1.26
same,Cutometer Extensibility % Change,facial skin; Week 12 vs Baseline,(9.6%)
same,CAT gene expression Direction,[1],down
same,CAT gene expression Log10RG,[1],−0.4768
same,COL4A1 gene expression Direction,[1],up
same,COL4A1 gene expression Log10RG,[1],0.2086
same,DSC3 gene expression Direction,[1],down
same,DSC3 gene expression Log10RG,[1],−0.2938
same,DSP gene expression Direction,[1],down
same,DSP gene expression Log10RG,[1],−0.2223
same,FN1 gene expression Direction,[1],up
same,FN1 gene expression Log10RG,[1],0.2411
same,FOXO1 gene expression Direction,[1],up
same,FOXO1 gene expression Log10RG,[1],0.2383
same,IL6 gene expression Direction,[1],up
same,IL6 gene expression Log10RG,[1],0.9322
same,ITGB1 gene expression Direction,[1],up
same,ITGB1 gene expression Log10RG,[1],9.36E−02
same,ITGB4 gene expression Direction,[1],down
same,ITGB4 gene expression Log10RG,[1],−0.8283
same,KRT1 gene expression Direction,[1],down
same,KRT1 gene expression Log10RG,[1],−1.112
same,KRT5 gene expression Direction,[1],down
same,KRT5 gene expression Log10RG,[1],−0.445
same,LOR gene expression Direction,[1],down
same,LOR gene expression Log10RG,[1],−1.921
same,PRKCA gene expression Direction,[1],up
same,PRKCA gene expression Log10RG,[1],0.2749
same,S100A8 gene expression Direction,[1],down
same,S100A8 gene expression Log10RG,[1],−0.6307
same,S100A9 gene expression Direction,[1],down
same,S100A9 gene expression Log10RG,[1],−0.6513
same,SDC1 gene expression Direction,[1],down
same,SDC1 gene expression Log10RG,[1],−0.3961
same,SMAD7 gene expression Direction,[1],up
same,SMAD7 gene expression Log10RG,[1],0.2325
same,SOD2 gene expression Direction,[1],up
same,SOD2 gene expression Log10RG,[1],0.3025
same,TNC gene expression Direction,[1],up
same,TNC gene expression Log10RG,[1],0.1429
same,ITGB1 gene expression Log10RG,[1]; listed as salicin,0.09356
